Experimental data published in patent US20040171086A1, “Selective modulation of TLR-mediated biological activity” (3M Innovative Properties Company, priority 2003, published 2004).

Columns and labels:
TLR7 = molecular target: T1, TLR7 (Homo sapiens, UniProt Q9NYK1); assay: NFκB-luciferase reporter assay in HEK293 cells transfected with human TLR7 (HEK293-TLR7); assay type: cell-based; set-up: expressed in transfected cells; host or cells: HEK293 (ATCC CRL-1573), pIRES vector, G-418 selected; conditions: HEK293-TLR7, 10 μM IRM, 16 hours
T1 sequence (Q9NYK1 27-1049): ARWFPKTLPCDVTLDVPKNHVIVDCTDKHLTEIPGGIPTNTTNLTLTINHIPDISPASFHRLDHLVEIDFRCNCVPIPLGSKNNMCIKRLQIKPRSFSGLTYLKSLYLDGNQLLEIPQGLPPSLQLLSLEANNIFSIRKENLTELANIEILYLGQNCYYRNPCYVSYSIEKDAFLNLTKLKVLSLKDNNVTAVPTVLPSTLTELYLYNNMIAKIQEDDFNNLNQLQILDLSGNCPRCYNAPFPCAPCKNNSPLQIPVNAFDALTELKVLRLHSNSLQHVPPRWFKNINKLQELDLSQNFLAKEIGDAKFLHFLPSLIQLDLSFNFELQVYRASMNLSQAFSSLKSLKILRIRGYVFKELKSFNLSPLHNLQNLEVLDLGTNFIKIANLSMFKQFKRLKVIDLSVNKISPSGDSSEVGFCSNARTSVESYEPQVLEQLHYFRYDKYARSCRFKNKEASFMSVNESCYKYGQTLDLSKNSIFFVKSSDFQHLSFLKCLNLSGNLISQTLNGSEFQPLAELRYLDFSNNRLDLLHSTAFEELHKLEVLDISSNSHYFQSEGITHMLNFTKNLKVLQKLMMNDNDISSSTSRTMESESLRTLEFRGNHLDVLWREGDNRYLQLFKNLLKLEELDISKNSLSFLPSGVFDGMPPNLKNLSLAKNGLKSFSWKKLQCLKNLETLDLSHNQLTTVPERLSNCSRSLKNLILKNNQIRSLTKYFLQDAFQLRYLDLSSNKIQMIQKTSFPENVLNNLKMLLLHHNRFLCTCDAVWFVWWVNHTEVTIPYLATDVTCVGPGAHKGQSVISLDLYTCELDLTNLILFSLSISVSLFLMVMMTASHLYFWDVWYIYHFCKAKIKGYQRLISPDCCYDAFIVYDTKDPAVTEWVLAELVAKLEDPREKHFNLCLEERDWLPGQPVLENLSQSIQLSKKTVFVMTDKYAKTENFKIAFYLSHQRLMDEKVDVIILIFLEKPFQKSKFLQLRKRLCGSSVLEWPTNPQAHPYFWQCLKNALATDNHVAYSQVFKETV
Method: (§1) A compound was identified as increasing cellular activity mediated through a given TLR if it induced at least a two-fold increase in NFκB-induced luciferase signal compared to the control.
(§2) HEK293 medium was prepared from 90% Minimum Essential Medium (MEM) with 2 mM L-glutamine and Earle's Balanced Salt Solution (Invitrogen Corp., Rockville, Md.) adjusted to contain 1.5 g/L sodium bicarbonate, 0.1 mM non-essential amino acids, and 1.0 mM sodium pyruvate; 10% heat-inactivated fetal calf serum. HEK293 cells were cultured by incubating cells in HEK293 medium overnight at 37° C., 8% CO2.
(§3) The cells were co-transfected with (1) pIRES (BD Biosciences Clontech, Palo Alto, Calif.) either (a) unmodified (HEK293-vector), (b) containing an expressible human TLR7 gene (HEK293-TLR7), or (c) containing an expressible human TLR8 gene (HEK293-TLR8), and (2) NFκB-luc reporter (Stratagene, La Jolla, Calif.) in a 10:1 ratio with Fugene 6 transfection reagent (Roche Diagnostics Corp., Indianapolis, Ind.) following the manufacturer's instructions.
(§4) The cells were stimulated with 1 μL of IRM compounds at 1 mM in DMSO (final IRM concentration of 10 μM) or 1 μL DMSO as a control. The plates were then incubated an additional 16 hours at 37° C., 5% CO2. The luciferase signal was read using the LucLite kit (Packard Instrument Co., Meriden, Conn.). Luminescence was measured on an LMAX luminometer (Molecular Devices Corp., Sunnyvale, Calif.).

human TLR8 = molecular target: T2, human TLR8 (Homo sapiens, UniProt Q9NR97); assay: NFκB-luciferase reporter assay in HEK293 cells transfected with human TLR8 (HEK293-TLR8); assay type: cell-based; conditions: HEK293-TLR8, 10 μM IRM, 16 hours
T2 construct: expressed in transfected cells; host or cells: HEK293 (ATCC CRL-1573), pIRES vector, G-418 selected
T2 sequence (Q9NR97 27-1041): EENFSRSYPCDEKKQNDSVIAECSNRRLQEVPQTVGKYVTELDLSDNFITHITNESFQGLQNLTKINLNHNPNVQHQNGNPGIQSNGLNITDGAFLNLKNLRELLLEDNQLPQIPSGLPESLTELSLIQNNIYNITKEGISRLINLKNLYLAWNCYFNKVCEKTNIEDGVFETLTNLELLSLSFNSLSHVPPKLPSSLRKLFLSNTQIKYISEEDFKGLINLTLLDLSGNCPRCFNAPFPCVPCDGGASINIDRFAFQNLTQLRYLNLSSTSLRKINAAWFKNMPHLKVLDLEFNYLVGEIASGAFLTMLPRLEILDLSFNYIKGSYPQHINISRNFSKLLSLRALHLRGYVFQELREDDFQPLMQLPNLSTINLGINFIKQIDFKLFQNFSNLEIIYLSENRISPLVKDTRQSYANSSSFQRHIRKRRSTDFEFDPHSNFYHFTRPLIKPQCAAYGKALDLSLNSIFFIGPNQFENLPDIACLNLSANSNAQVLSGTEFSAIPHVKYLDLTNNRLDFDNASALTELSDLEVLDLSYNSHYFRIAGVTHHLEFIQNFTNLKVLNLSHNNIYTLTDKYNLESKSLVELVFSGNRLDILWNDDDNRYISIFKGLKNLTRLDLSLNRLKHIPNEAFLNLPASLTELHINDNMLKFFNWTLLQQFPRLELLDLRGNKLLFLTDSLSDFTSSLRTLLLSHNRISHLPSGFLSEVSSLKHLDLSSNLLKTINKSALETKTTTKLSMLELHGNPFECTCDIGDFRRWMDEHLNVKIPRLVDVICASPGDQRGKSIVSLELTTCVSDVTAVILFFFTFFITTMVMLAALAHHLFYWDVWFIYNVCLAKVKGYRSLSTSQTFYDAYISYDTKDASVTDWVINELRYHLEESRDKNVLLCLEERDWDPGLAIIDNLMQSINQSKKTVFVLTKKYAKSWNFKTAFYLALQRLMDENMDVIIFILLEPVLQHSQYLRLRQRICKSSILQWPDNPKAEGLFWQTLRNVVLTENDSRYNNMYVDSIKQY
Method: as §1, §2, §3, §4

SMILES	TLR7: fold increase of NFκB-induced luciferase signal compared to a DMSO control (TLR7) [fold increase]	TLR8: fold increase of NFκB-induced luciferase signal compared to a DMSO control (human TLR8) [fold increase]
CCOCc1nc2c(N)nc3ccccc3c2n1CC(C)C [IRM1, 2-(ethoxymethyl)-1-(2-methylpropyl)-1H-imidazo[4,5-c]quinolin-4-amine]	4.05	1.02
COCCc1nc2c(N)nc3ccccc3c2n1CCOCCN(C)C(=O)C1CCCCC1 [IRM3, N-(2-{2-[4-amino-2-(2-methoxyethyl)-1H-imidazo[4,5-c]quinolin-1-yl]ethoxy}ethyl)-N-methylcyclohexanecarboxamide]	6.37	1.14
CCCCc1nc2c(N)nc3ccccc3c2n1CCCCCS(C)(=O)=O [IRM6, 2-butyl-1-[5-(methylsulfonyl)pentyl]-1H-imidazo[4,5-c]quinolin-4-amine]	8.46	0.90
CCc1nc2c(N)nc3ccccc3c2n1CCCCNC(=O)C1CCCCC1 [IRM8, N-[4-(4-amino-2-ethyl-1H-imidazo[4,5-c]quinolin-1-yl)butyl]cyclohexanecarboxamide]	6.04	0.99
CCc1nc2c(N)nc3ccccc3c2n1CCCCSc1cc(Cl)cc(Cl)c1 [IRM14, 1-{4-[(3,5-dichlorophenyl)thio]butyl}-2-ethyl-1H-imidazo[4,5-c]quinolin-4-amine]	0.67	4.18
CCOCc1nc2c(N)nc3c(c2n1CC(C)(C)O)CCCC3 [IRM16, 4-amino-2-ethoxymethyl-α,α-dimethyl-6,7,8,9-tetrahydro-1H-imidazo[4,5-c]quinoline-1-ethanol]	5.54	8.64
COCCc1nc2c(N)nc3ccccc3c2n1CCOCCNC(=O)Nc1ccccc1 [IRM19, N-(2-{2-[4-amino-2-(2-methoxyethyl)-1H-imidazo[4,5-c]quinolin-1-yl)ethoxy}ethyl)-N′-phenylurea]	2.45	7.25
CCC(C)NC(=S)NCCn1c(CCOC)nc2c(N)nc3ccccc3c21 (stereo not drawn) [IRM21, N-{2-[4-amino-2-(2-methoxyethyl)-1H-imidazo[4,5-c]quinolin-1-yl]ethyl}-N′-sec-butylthiourea]	7.08	5.92
COCCc1nc2c(N)nc3c(c2n1CC(C)(C)NS(C)(=O)=O)CCCC3 [IRM22, N-{2-[4-amino-2-(2-methoxyethyl)-6,7,8,9-tetrahydro-1H-imidazo[4,5-c]quinolin-1-yl]-1,1-dimethylethyl}methanesulfonamide]	6.57	7.37
